Reference: PMC4412288, “Crystal Structures of the Carboxyl cGMP Binding Domain of the Plasmodium falciparum cGMP-dependent Protein Kinase Reveal a Novel Capping Triad Crucial for Merozoite Egress” (PLoS Pathogens, 2015)
“And” between values parts separate entries of the source, which are not always exact repeats. Equal values may be shown once.

Key:
[1] = target: T1, PfPKG full regulatory domain (1–542) Q532A (Plasmodium falciparum, UniProt Q8I719, Q532A); type: binding; conditions: read-out: EC50 ± SEM (n) competition experiments
T1 construct: PfPKG full regulatory domain (1–542); His-tag (pQTEV, TEV site) (N, cleaved yes); made in house; host or cells: E. coli TP2000 (delta-cya)
Protocol: (§1) Measurements were performed in 150 mM NaCl, 20 mM MOPS plus 0.005% (w/v) CHAPS pH 7.0 using the Fusion a-FP microtiter plate reader at room temperature in a 384 well microtiterplate (Perkin Elmer, Optiplate, black). […] The KD values were calculated from sigmoidal dose-response curves.
(§2) For competition FP experiments, the protein concentration and the concentration of 8-Fluo-cGMP were fixed to give a polarization signal that was 50% of the maximum value obtained from direct FP measurements. […] FP signals were detected as indicated above. […] The EC50 values were calculated from sigmoidal dose-response curves.

[2] = target: T2, PfPKG PfCNB-A (residues 1–173) (Plasmodium falciparum, UniProt Q8I719); type: binding; conditions: competition with 8-Fluo-cGMP, read-out: EC50 ± SEM (n) competition measurements
T2 construct: residues 1–173 for CNB-A; His-tag (pQTEV, TEV site) (N, cleaved yes); made in house; host or cells: E. coli TP2000 (delta-cya)
T2 sequence (Q8I719 1-173): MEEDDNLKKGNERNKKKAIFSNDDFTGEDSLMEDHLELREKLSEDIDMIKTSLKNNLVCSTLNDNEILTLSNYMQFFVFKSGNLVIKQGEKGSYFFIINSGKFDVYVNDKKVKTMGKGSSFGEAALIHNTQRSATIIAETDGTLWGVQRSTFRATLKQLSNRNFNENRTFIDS
Protocol: as §1, §2

[3] = target: T3, PfPKG CNB-D (401–542) Q532A (Plasmodium falciparum, UniProt Q8I719, Q532A); type: binding; conditions: PfCNB-D Q532A; read-out: EC50 ± SEM (n) competition experiments
T3 construct: 401–542 for CNB-D; His-tag (pQTEV, TEV site) (N, cleaved yes); made in house; host or cells: E. coli TP2000 (delta-cya)
T3 sequence (Q8I719 401-542 Q532A): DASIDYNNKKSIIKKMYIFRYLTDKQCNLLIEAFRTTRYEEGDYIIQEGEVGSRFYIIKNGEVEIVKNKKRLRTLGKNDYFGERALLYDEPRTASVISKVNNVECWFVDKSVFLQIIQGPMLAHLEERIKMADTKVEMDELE
Protocol: as §1, §2

[4] = target: T4, PfPKG CNB-D (401–542) R484A (Plasmodium falciparum, UniProt Q8I719, R484A); type: binding; conditions: PfCNB-D R484A; read-out: EC50 ± SEM (n) competition experiments
T4 construct: 401–542 for CNB-D; His-tag (pQTEV, TEV site) (N, cleaved yes); made in house; host or cells: E. coli TP2000 (delta-cya)
T4 sequence (Q8I719 401-542 R484A): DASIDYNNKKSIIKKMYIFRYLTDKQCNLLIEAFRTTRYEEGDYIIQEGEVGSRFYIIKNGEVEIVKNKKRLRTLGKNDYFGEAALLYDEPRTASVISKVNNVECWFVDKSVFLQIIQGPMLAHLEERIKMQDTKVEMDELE
Protocol: as §1, §2

[5] = target: T5, PfPKG full regulatory domain (1–542) Wild type (Plasmodium falciparum, UniProt Q8I719); type: binding; conditions: read-out: EC50 ± SEM (n) competition experiments
T5 construct: PfPKG full regulatory domain (1–542); His-tag (pQTEV, TEV site) (N, cleaved yes); made in house; host or cells: E. coli TP2000 (delta-cya)
T5 sequence (Q8I719 1-542): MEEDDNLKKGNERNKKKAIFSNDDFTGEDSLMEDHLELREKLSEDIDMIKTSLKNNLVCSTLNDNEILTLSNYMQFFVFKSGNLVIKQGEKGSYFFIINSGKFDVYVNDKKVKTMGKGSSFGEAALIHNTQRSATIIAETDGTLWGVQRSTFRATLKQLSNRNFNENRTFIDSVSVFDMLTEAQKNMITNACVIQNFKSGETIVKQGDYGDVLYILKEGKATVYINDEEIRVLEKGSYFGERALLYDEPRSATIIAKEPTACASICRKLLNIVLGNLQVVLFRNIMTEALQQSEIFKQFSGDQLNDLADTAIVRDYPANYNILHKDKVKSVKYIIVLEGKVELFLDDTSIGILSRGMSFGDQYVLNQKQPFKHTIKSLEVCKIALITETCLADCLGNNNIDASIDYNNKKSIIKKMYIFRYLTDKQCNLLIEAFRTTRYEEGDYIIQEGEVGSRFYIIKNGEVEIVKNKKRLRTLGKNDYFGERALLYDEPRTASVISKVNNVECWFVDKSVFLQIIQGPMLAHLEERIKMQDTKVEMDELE
Protocol: as §1, §2

[6] = target: T6, PfPKG full regulatory domain (1–542) R484A (Plasmodium falciparum, UniProt Q8I719, R484A); type: binding; conditions: read-out: EC50 ± SEM (n) competition experiments
T6 construct: PfPKG full regulatory domain (1–542); His-tag (pQTEV, TEV site) (N, cleaved yes); made in house; host or cells: E. coli TP2000 (delta-cya)
T6 sequence (Q8I719 1-542 R484A): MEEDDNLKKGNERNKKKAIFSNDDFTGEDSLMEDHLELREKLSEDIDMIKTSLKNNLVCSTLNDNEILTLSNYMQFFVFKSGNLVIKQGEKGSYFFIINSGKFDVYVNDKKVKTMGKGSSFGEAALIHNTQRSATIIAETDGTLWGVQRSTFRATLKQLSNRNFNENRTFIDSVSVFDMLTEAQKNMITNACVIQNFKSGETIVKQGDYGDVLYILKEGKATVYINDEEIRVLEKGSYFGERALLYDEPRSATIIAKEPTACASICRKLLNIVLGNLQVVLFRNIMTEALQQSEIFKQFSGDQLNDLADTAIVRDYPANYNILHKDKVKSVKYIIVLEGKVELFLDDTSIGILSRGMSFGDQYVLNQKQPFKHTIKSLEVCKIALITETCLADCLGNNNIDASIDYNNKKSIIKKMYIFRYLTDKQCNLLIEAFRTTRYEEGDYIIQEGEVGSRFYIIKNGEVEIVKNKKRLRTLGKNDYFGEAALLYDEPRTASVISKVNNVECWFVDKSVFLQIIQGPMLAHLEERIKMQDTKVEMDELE
Protocol: as §1, §2

[7] = target: T7, PfPKG CNB-D (401–542) Wild type (Plasmodium falciparum, UniProt Q8I719); type: binding
T7 construct: 401–542 for CNB-D; His-tag (pQTEV, TEV site) (N, cleaved yes); made in house; host or cells: E. coli TP2000 (delta-cya)
T7 sequence (Q8I719 401-542): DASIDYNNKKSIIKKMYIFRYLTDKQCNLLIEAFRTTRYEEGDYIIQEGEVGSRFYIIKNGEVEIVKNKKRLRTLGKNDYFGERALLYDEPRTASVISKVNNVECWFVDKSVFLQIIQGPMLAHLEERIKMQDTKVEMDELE
Protocol: as §1, §2

[8] = target: T8, PfPKG CNB-D (401–542) D533A (Plasmodium falciparum, UniProt Q8I719, D533A); type: binding; conditions: PfCNB-D D533A; read-out: EC50 ± SEM (n) competition experiments
T8 construct: 401–542 for CNB-D; His-tag (pQTEV, TEV site) (N, cleaved yes); made in house; host or cells: E. coli TP2000 (delta-cya)
Protocol: as §1, §2

[9] = target: T9, PfPKG CNB-D (401–542) R484A/Q532A/D533A (Plasmodium falciparum, UniProt Q8I719, D533A/Q532A/R484A); type: binding; conditions: PfCNB-D R484A/Q532A/D533A; read-out: EC50 ± SEM (n) competition experiments
T9 construct: 401–542 for CNB-D; His-tag (pQTEV, TEV site) (N, cleaved yes); made in house; host or cells: E. coli TP2000 (delta-cya)
T9 sequence (Q8I719 401-542 R484A/Q532A/D533A): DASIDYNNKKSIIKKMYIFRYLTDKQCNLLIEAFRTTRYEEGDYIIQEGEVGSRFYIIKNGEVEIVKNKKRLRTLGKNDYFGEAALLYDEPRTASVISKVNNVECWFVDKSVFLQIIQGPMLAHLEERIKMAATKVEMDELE
Protocol: as §1, §2

[10] = target: T10, PfPKG full regulatory domain (1–542) R484A/Q532A/D533A (Plasmodium falciparum, UniProt Q8I719, D533A/Q532A/R484A); type: binding; conditions: read-out: EC50 ± SEM (n) competition experiments
T10 construct: PfPKG full regulatory domain (1–542); His-tag (pQTEV, TEV site) (N, cleaved yes); made in house; host or cells: E. coli TP2000 (delta-cya)
Protocol: as §1, §2

[11] = target: T11, PfPKG full regulatory domain (1–542) D533A (Plasmodium falciparum, UniProt Q8I719, D533A); type: binding; conditions: read-out: EC50 ± SEM (n) competition experiments
T11 construct: PfPKG full regulatory domain (1–542); His-tag (pQTEV, TEV site) (N, cleaved yes); made in house; host or cells: E. coli TP2000 (delta-cya)
T11 sequence (Q8I719 1-542 D533A): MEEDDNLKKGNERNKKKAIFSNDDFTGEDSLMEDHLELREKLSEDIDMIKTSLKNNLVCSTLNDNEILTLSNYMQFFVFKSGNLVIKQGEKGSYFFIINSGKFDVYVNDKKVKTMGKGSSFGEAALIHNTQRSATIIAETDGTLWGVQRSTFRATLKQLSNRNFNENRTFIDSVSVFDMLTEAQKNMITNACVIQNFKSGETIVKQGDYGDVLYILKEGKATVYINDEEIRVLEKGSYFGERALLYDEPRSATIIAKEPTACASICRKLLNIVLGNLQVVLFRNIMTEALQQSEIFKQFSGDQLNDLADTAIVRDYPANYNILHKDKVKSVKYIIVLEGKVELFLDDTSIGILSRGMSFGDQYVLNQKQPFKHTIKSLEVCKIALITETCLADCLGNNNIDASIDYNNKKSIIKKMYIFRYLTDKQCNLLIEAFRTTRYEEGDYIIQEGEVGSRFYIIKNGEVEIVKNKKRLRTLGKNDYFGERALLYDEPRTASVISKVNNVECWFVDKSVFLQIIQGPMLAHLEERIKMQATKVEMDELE
Protocol: as §1, §2

[12] = target: T12, PfPKG PfCNB-B (residues 158–294) (Plasmodium falciparum, UniProt Q8I719); experiment: Competition FP assay, isolated PfCNB-B domain; type: binding; conditions: competition with 8-Fluo-cGMP, read-out: EC50 ± SEM (n) competition measurements
T12 construct: 158–294 for CNB-B; His-tag (pQTEV, TEV site) (N, cleaved yes); made in house; host or cells: E. coli TP2000 (delta-cya)
Protocol: as §1, §2

PfCNB-C = test system: PfCNB-C; design: method as in PMID 12817987; conditions: cited from earlier work
PfPKG (1-853) D533A = target: T13, PfPKG (1-853) D533A (Plasmodium falciparum, UniProt Q8I719, D533A); type: biochemical
T13 construct: full-length PfPKG (residues 1–853); His-tag (pQTEV, TEV site) (N, cleaved yes); made in house; host or cells: E. coli TP2000 (delta-cya)
T13 sequence (Q8I719 whole entry D533A, the tested form may be a part): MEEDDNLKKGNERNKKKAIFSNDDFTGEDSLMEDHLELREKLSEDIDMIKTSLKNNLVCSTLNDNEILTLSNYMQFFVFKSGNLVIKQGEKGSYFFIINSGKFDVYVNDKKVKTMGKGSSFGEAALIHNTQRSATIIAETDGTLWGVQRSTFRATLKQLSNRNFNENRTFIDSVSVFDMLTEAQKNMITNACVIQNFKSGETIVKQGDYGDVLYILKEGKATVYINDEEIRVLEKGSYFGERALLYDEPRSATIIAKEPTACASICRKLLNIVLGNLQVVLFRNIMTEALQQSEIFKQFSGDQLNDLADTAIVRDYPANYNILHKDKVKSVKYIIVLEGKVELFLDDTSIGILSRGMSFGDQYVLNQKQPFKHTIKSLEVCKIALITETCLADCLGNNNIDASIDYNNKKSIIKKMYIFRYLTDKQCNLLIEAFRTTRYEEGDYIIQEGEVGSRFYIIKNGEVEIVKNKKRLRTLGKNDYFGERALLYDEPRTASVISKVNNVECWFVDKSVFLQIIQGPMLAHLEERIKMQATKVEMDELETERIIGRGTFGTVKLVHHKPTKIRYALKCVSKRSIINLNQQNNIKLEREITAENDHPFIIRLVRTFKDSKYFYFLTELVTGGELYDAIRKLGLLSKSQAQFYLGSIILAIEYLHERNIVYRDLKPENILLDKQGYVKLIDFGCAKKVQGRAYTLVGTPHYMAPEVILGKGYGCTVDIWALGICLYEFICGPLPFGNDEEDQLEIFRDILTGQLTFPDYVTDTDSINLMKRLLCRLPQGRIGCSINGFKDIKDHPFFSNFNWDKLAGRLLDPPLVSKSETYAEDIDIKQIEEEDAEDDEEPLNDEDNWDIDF
Protocol: (§3) Kinase activity was determined using a microfluidic mobility-shift assay on a Caliper DeskTop Profiler (Caliper Life Sciences, PerkinElmer). […] Reaction mixtures without cyclic nucleotide were used as controls. For electrophoretic separation of substrate and product, a ProfilerPro LabChip (4-sipper mode; Caliper Life Sciences, PerkinElmer) was used under the following conditions: downstream voltage-500 V, upstream voltage-1,900 V with a screening pressure of-1.3 psi.

PfPKG (1-853) Wild Type = target: T14, PfPKG (1-853) Wild Type (Plasmodium falciparum, UniProt Q8I719); type: biochemical
T14 construct: full-length PfPKG (residues 1–853); His-tag (pQTEV, TEV site) (N, cleaved yes); made in house; host or cells: E. coli TP2000 (delta-cya)
T14 sequence (Q8I719 whole entry, the tested form may be a part): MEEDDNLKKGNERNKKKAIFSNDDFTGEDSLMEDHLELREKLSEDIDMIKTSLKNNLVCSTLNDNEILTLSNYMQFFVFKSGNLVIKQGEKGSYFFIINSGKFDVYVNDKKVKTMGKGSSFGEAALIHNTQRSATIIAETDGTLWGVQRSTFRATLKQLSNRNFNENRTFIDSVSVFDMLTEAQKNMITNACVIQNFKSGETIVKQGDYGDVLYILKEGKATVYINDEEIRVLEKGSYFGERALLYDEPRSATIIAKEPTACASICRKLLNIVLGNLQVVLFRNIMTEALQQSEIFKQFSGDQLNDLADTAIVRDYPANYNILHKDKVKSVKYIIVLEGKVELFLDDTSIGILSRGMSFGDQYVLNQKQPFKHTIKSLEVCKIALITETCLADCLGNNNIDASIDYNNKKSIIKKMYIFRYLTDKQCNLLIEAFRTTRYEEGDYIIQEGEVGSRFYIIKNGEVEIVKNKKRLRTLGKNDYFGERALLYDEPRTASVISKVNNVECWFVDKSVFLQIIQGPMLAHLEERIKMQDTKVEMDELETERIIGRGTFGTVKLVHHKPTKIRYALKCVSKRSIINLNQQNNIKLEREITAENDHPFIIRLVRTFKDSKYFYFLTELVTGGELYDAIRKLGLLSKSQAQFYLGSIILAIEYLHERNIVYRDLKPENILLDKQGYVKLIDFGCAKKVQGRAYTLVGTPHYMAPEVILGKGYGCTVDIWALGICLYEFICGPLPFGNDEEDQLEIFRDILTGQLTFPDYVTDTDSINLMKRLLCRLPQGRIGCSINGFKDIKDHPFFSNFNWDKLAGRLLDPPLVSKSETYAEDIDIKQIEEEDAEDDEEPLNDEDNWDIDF
Protocol: as §3

[13] = target: T15, PfPKG (1-853) R484A/Q532A/D533A (Plasmodium falciparum, UniProt Q8I719, D533A/Q532A/R484A); type: biochemical; conditions: triple mutant versus wild type
T15 construct: full-length PfPKG (residues 1–853); His-tag (pQTEV, TEV site) (N, cleaved yes); made in house; host or cells: E. coli TP2000 (delta-cya)
T15 sequence (Q8I719 whole entry R484A/Q532A/D533A, the tested form may be a part): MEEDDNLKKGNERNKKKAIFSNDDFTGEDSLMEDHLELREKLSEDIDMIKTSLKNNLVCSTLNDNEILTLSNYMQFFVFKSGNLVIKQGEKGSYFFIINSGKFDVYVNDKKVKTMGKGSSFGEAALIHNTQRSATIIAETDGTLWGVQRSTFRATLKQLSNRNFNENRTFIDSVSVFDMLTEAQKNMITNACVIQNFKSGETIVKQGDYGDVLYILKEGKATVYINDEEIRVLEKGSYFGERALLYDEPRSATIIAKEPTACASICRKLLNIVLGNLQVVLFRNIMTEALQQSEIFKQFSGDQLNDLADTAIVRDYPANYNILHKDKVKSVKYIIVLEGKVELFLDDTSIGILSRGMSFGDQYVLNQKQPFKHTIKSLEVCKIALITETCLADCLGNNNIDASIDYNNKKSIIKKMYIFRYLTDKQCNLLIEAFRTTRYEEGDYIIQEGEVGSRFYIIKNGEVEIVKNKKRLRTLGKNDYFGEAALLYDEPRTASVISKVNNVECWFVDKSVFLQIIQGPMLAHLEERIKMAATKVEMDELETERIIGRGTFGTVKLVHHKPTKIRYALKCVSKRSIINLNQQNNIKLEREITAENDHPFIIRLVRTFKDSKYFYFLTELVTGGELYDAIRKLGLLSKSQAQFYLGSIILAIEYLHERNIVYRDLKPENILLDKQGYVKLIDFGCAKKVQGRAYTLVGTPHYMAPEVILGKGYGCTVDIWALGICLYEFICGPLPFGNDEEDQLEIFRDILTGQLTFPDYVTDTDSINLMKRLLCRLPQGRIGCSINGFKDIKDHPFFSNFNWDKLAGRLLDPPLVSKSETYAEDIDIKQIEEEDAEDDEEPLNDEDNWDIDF
Protocol: as §3

[14] = target: T16, PfCNB-C (residues 275–428) (Plasmodium falciparum, UniProt Q8I719); experiment: FP binding measurements, isolated PfCNB-C domain
T16 construct: 275–428 for CNB-C; His-tag (pQTEV, TEV site) (N, cleaved yes); made in house; host or cells: E. coli TP2000 (delta-cya)
From the text: A manually designed construct consisting of PfPKG amino acids 1–853 with codons optimized for expression in E.coli was synthesized at Life Technologies. All PfPKG constructs were ligated into the His-tagged bacterial expression vector, pQTEV [28]. In designing the expression constructs of each CNB, we used the sequence of the cGMP selective CNB-B that we recently reported. The domain boundaries for the individual constructs are: residues 1–173 for CNB-A, 158–294 for CNB-B, 275–428 for CNB-C and 401–542 for CNB-D. All PfPKG proteins were expressed in TP2000 E. coli. The cells were grown at 37 °C to an OD600nm of 0.6, then induced with 0.5 mM IPTG, and grown for an additional 10 hours at 25 °C. Cells were harvested by centrifugation, then resuspended in 50 mM potassium phosphate (pH 7.5), 500 mM NaCl and 1 mM β-mercaptoethanol, and lysed using a cell disruptor (Constant Systems).
The direct fluorescence polarization (FP) assay was performed following the procedure from Moll et al. Measurements were performed in 150 mM NaCl, 20 mM MOPS plus 0.005% (w/v) CHAPS pH 7.0 using the Fusion a-FP microtiter plate reader at room temperature in a 384 well microtiterplate (Perkin Elmer, Optiplate, black). The protein concentration was varied while the concentration of 8-Fluo-cAMP/8-Fluo-cGMP (Biolog Life Science Institute (Bremen, Germany)) was fixed at 1–5 nM. […] The KD values were calculated from sigmoidal dose-response curves.
For competition FP experiments, the protein concentration and the concentration of 8-Fluo-cGMP were fixed to give a polarization signal that was 50% of the maximum value obtained from direct FP measurements. […] FP signals were detected as indicated above. Data were analyzed with GraphPad Prism 5.03 by plotting the polarization signal in mPol against the logarithm of the cyclic nucleotide concentration. The EC50 values were calculated from sigmoidal dose-response curves.

human PKG Iβ CNB-B = test system: human PKG Iβ CNB-B; design: method as in PMID 24239458; conditions: cited from earlier work
[15] = test system: PfPKG with disabled PfCNB-D; design: method as in PMID 12817987; conditions: disabling PfCNB-D by mutation of a putative cGMP-binding residue; cited from earlier work
[16] = test system: P. falciparum PfPKGT618Q/R484A/Q532A/D533A-3xHA transgenic line; experiment: Growth assay in presence of compound 2, triple mutant line; type: cell-based, Plasmodium falciparum; conditions: 1 μM; duration of the experiment 7 days
Protocol: (§4) P. falciparum lines 3D7/attB [22], 3D7/PfPKGT618Q [6], and 3D7/PfPKG-HA [35] were cultured according to standard procedures in human A+ erythrocytes (National Blood Transfusion Service, UK) and RPMI 1640 medium supplemented with 0.5% Albumax type II (Lifetech) and 5 nM WR99210 (Jacobus Pharmaceuticals, New Jersey).
(§5) P. falciparum cultures were synchronised by repeated sorbitol lysis, then either compound 2 (1μM) or DMSO was added to late trophozoites / early schizonts and cultures harvested 16h later to count newly formed ring stage parasites. Cells were fixed in 4% formaldehyde/0.1% glutaraldehyde in PBS for 30 minutes at room temperature, stained with SYBR green (Lifetech) diluted 1:10000 in PBS for 30 minutes, washed with PBS and analysed on a FACSCalibur cell analyser (Becton Dickinson). FACS data were analysed using FlowJo software. For growth assays, starting parasitaemia was 0.2% ring stages and cultured in presence or absence of compound 2 (1 μM). Samples were taken every 48h and fixed, stained, and analyzed as described above.

[17] = test system: P. falciparum PfPKGT618Q replacement line and PfPKGT618Q-3xHA control line; experiment: Schizont accumulation assay, T618Q lines; type: cell-based, Plasmodium falciparum; conditions: 1 μM; Giemsa-stained blood films
PfPKG T618Q mutant = test system: PfPKG T618Q mutant; design: method as in PMID 18532880, PMID 19915077, PMID 23675297, PMID 24594931; conditions: T618Q gatekeeper substitution; cited from earlier work
[18] = test system: P. falciparum PfPKGT618Q-3xHA control line; experiment: Growth assay in presence of compound 2, T618Q-3xHA control line; type: cell-based, Plasmodium falciparum; conditions: 1 μM; duration of the experiment 7 days
Protocol: as §4, §5

[19] = test system: P. falciparum PfPKGT618Q/R484A-3xHA transgenic line; experiment: Growth assay in presence of compound 2, R484A line; type: cell-based, Plasmodium falciparum; conditions: 1 μM; duration of the experiment 7 days
Protocol: as §4, §5

[20] = test system: P. falciparum transgenic lines with the capping triad mutations; experiment: Schizont accumulation assay, capping triad mutant lines; type: cell-based, Plasmodium falciparum; conditions: 1 μM; Giemsa-stained blood films
Protocol: as §5, with “Cells were fixed in 4% formaldehyde/0.1% glutaraldehyde in PBS for 30 minutes at room temperature, stained with SYBR green (Lifetech) diluted 1:10000 in PBS for 30 minutes, washed with PBS and analysed on a FACSCalibur cell analyser (Becton Dickinson).” left out

Nc1nc2c(ncn2[C@@H]2O[C@@H]3COP(=O)(O)O[C@H]3[C@H]2O)c(=O)[nH]1 [cGMP, Cyclic GMP]
EC50 [1]: 2200 ± 100 nM | EC50 [2]: 1000 nM | EC50 [3]: 2400 ± 100 nM | EC50 [4]: 3200 ± 400 nM | EC50 [5]: 79 ± 4 nM | EC50 [6]: 960 ± 20 nM | EC50 ([7]; PfCNB-D wild type, competition with 8-Fluo-cGMP, read-out: EC50 ± SEM (n) competition experiments): 38 nM and 37.8 nM | selectivity for cGMP ([7]; PfCNB-D, cGMP over cAMP): over 190 fold | EC50 [8]: 760 ± 40 nM | EC50 [9]: 7000 nM and 7200 nM | EC50 [10]: 1400 ± 100 nM | EC50 [11]: 610 ± 50 nM | EC50 [12]: 1200 nM | cGMP binding (PfCNB-C): could not be detected | Ka ± SEM (n), activation constant (PfPKG (1-853) D533A): 330 nM | Ka ± SEM (n), activation constant (PfPKG (1-853) Wild Type): 66 nM | increase of Ka:cGMP on mutating all three residues [13]: over 28 fold | cGMP binding [14]: little to no binding | EC50 (human PKG Iβ CNB-B): 215 nM | increase in the activation constant for cGMP (Ka:cGMP) [15]: 10 fold

CN(C)Cc1ccn2c(-c3ccnc(N)n3)c(-c3ccc(F)cc3)nc2c1 [compound 2]
parasite growth in the presence of compound [16]: did not proliferate | ring stage parasites observed [17]: high levels of ring stage parasites | sensitivity of the kinase to the inhibitor (PfPKG T618Q mutant): no longer sensitive | parasite growth in the presence of compound [18]: able to grow at a similar rate to the allelic replacement control line | parasite growth in the presence of compound [19]: did not proliferate | progression from schizont to ring stage parasites [20]: did not progress to ring stage parasites
